Legend:
[1] = system: HRV serotype 13; assay: HRV cytopathic effect assay; assay type: cell-based; details: Human rhinovirus sp.
[2] = system: HRV serotype 15; assay: HRV cytopathic effect assay; assay type: cell-based; details: Human rhinovirus sp.
[3] = system: HRV serotype 20; assay: HRV cytopathic effect assay; assay type: cell-based; details: Human rhinovirus sp.
[4] = system: HRV serotype 38; assay: HRV cytopathic effect assay; assay type: cell-based; details: Human rhinovirus sp.
[5] = system: HRV serotype 5; assay: HRV cytopathic effect assay; assay type: cell-based; details: Human rhinovirus sp.
[6] = system: HRV serotype 61; assay: HRV cytopathic effect assay; assay type: cell-based; details: Human rhinovirus sp.
[7] = system: HRV serotype 63; assay: HRV cytopathic effect assay; assay type: cell-based; details: Human rhinovirus sp.
[8] = system: HRV serotype 70; assay: HRV cytopathic effect assay; assay type: cell-based; details: Human rhinovirus sp.
[9] = system: HRV serotype 76; assay: HRV cytopathic effect assay; assay type: cell-based; details: Human rhinovirus sp.
[10] = system: HRV3; assay: Uncoating inhibition; assay type: cell-based, human rhinovirus; details: 2 μM, 2 hours at 33° C.
Method: Following attachment to susceptible cells, rhinoviruses are endocytosed and disassembled or uncoated in order to release the viral RNA for subsequent gene expression and RNA replication. To determine if pleconaril affected the uncoating stage of the virus infection cycle, two types of experiments were carried out. In the first approach, an experiment was conducted to follow directly the fate of intact ^35S-radiolabeled (156S) virions attached to cells that were then allowed to proceed through virion disassembly (uncoating) in either the absence or presence of pleconaril. HRV3 virus was chosen for this experiment, as it is representative of the respective genera, and because binding of pleconaril was fully reversible with dilution, minimizing the possibility of drug carryover issues.
After virion attachment, either pleconaril (2 μM) or DMSO control solution was added to the cultures. After an additional 1 hour, the culture was shifted to 33° C., a temperature that permitted virus uncoating. After 2 hours, cell lysates were prepared and the amount of intact 156S virions was assessed by sedimentation of the lysates on continuous sucrose density gradients. […]

[11] = Clinical pharmacokinetics: food effect, linearity, renal excretion; assay type: in vivo, human
Method: Pleconaril was administered with food in all Phase II and III clinical studies conducted by Applicants.
Pleconaril has a volume of distribution (Vz/F) that is consistent with significant tissue distribution despite the fact that pleconaril is highly bound (>99%) to plasma protein. Pleconaril is a low systemic clearance drug. Renal clearance contributes insignificantly to the systemic clearance of pleconaril. Less than 1% of the dose is excreted unchanged as pleconaril in urine.

## Cc1cc(CCCOc2c(C)cc(-c3noc(C(F)(F)F)n3)cc2C)on1 [pleconaril, 3-[3,5-dimethyl-4-[3-(3-methyl-5-isoxazolyl)propoxy]phenyl]-5-(trifluoromethyl)-1,2,4-oxadiazole]
[1]
  IC50: 580 ± 130 nM
[2]
  IC50: 590 ± 290 nM
[3]
  IC50: 60 nM
[4]
  IC50: 100 ± 40 nM
[5]
  IC50: > 12500 nM
[6]
  IC50: 210 ± 80 nM
[7]
  IC50: 160 ± 80 nM
[8]
  IC50: 300 ± 190 nM
[9]
  IC50: 240 ± 290 nM
[10]
  reduction in the amount of attached intact 156S virions (uncoating): minimal reduction
[11]; plasma concentration range exceeding the proposed regimen by approximately 2-fold
  pharmacokinetic profile, dose dependence: dose proportional and linear
[11]; urine
  dose excreted unchanged as pleconaril in urine: Less than 1%
[11]; with food
  increase of absorption when administered with food: 3-4 fold

Reference: patent US20060167109A1, “Methods of reducing rhinovirus contagion and related compositions” (priority 2002, published 2006)
